This is an account of results in US12630509B2, “Heterocyclic NMDA antagonists” (TAKEDA PHARMACEUTICAL COMPANY LIMITED, priority 2019, dated 2026).

The target of this assay is NMDA receptor composed of four subunits including two sets of heterodimers of NR1 and NR2B (GRIN1/GRIN2B) expressed in HEK 293 cells (Homo sapiens, UniProt Q13224). The assay can be described thus: NR2B Ca2+ influx assay. Type of assay: cell-based. Particulars: glutamic acid and glycine induced Ca2+ influx, HEK 293 cells expressing human GRIN1 and GRIN2B; for inhibition at 10 µM: HEK293, final concentration 10 μM, read-out: % inhibited(10 μM); for % inhibited(10 μM): final concentration 10 μM. The method, then: The HEK 293 cells that express GRIN1 and GRIN2B were purchased from ChanTest (human NMDA (NR1/NR2B) receptor-expressing, stable replicating cell line (HEK 293) catalog no. CT6121).
Sequence of NMDA receptor composed of four subunits including two sets of heterodimers of NR1 and NR2B (GRIN1/GRIN2B) expressed in HEK 293 cells (Q13224 27-1484, other chains not shown): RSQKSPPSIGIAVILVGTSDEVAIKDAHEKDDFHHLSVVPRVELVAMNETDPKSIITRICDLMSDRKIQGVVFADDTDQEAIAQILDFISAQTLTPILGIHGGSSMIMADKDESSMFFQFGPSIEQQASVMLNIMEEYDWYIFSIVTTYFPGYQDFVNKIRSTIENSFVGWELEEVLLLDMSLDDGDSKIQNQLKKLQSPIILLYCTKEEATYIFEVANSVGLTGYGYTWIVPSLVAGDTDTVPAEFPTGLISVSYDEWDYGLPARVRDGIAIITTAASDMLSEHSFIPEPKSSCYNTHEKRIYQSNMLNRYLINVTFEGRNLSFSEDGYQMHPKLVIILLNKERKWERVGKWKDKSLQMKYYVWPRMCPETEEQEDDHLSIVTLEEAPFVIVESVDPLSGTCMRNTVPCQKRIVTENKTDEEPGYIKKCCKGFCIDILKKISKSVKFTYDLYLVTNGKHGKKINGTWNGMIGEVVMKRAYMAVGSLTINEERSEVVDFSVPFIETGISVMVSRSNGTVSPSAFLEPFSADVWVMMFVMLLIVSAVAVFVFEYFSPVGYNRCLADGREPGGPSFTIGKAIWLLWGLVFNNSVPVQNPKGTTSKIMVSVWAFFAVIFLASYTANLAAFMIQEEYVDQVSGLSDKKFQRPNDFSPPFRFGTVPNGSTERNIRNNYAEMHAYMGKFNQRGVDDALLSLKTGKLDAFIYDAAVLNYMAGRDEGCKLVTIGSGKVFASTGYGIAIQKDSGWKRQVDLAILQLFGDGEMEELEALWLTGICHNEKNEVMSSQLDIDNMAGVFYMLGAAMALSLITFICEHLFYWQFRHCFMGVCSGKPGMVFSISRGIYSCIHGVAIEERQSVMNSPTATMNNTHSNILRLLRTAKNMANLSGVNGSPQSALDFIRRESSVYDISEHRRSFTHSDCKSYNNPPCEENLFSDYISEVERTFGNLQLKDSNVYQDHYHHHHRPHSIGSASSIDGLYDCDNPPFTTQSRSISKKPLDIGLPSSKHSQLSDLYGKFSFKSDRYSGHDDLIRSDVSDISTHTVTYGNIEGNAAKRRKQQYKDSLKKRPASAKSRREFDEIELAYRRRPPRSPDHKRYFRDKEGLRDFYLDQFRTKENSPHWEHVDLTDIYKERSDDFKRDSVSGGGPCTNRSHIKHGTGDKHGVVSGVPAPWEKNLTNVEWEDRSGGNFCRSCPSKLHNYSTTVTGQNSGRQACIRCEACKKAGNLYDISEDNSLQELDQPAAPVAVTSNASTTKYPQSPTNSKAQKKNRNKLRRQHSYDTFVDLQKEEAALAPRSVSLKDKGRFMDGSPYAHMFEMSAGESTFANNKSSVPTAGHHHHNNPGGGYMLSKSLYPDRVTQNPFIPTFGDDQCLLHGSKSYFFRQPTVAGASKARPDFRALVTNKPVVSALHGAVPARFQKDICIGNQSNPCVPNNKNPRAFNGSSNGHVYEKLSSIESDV
Intracellular calcium-ion (Ca^2+) influx caused by glycine and glutamic acid respectively binding to NR1 and NR2B was used as an index of NMDA receptor activation.
The HEK 293 cells expressing GRIN1 and GRIN2B were cultured in a cell culture flask in an incubator (37° C., in 5% CO2) using a DMEM/F-12 (Cosmo Bio, 10-092-CM) medium supplemented with 10% FBS (fetal bovine serum, AusGene), 100 units/mL penicillin, 100 μg/mL streptomycin, 500 μg/mL neomycin, 100 μg/mL Zeocin (registered trademark of Invitrogen), and 5 μg/mL blasticidin.
On the day before the assay, the cells were detached from the flask by trypsinization, suspended in a seeding medium (DMEM (Invitrogen, 31053) supplemented with 10% FBS, 100 units/mL penicillin, and 100 μg/mL streptomycin) so as to be 8×10^5 cells/mL, seeded at 25 μL per well in a 384-well plate (Falcon, 356663) so as to be 20,000 cells/well, and cultured overnight using the incubator. On the day of the assay, tetracycline (Wako Pure Chemical, 209-16561) was diluted with the seeding medium at 2 μg/mL, and added at 25 μL/well to the plate into which the cells were seeded, and this was cultured for 2 hours in the incubator. Afterward, the medium was removed and washed with an assay buffer (137 mM NaCl, 4 mM KCl, 1.8 mM CaCl2), 10 mM HEPES (pH 7.2), 10 mM glucose, 0.1% BSA) at 50 μL/well. Next, a loading buffer (buffer wherein 2.5 μM Fluo-4 AM, 2 mM amaranth, and 1 mM tartrazine are added to the assay buffer) was added at 25 μL/well, and this was incubated in the incubator for 30 minutes and for 15 minutes at room temperature. Solutions wherein the Example compounds were diluted with the above-mentioned assay buffer so as to be 30 μM (final concentration 10 μM) were added at 25 μL/well, and these were left standing for 15 minutes at room temperature. Using FDSS7000EX/μCELL (Hamamatsu Photonics), an assay buffer including 30 μM glutamic acid and 30 μM glycine was added at 25 μL/well, and a fluorescence signal of an Excitation wavelength of 480 nm and an Emission wavelength of 540 nm was measured every 3 seconds for 5 minutes. The inhibitory activity was calculated as a relative activity value (inhibitory rate) wherein relative to an integrated value of florescence values of each well, an integrated value of fluorescence values of a well into which an assay buffer without glutamic acid and glycine was defined as 100% inhibition.

Consider `C[C@H]1CCC(=O)N1Cc1ccc(Oc2ccc(C(F)F)cc2F)nc1` [Example 47, (5S)-1-({6-[4-(difluoromethy)-2-fluorophenoxy]pyridin-3-yl}methyl)-5-methylpyrrolidin-2-one], for which the inhibition at 10 µM turned out to be 99%.

As for `C[C@H]1CNC(=O)N1Cc1ccc(Oc2ccc(F)cc2F)nc1` [Example 35, (5S)-1-{[6-(2,4-difluorophenoxy)pyridin-3-yl]methyl}5-methylimidazolidin-2-one], the inhibition at 10 µM was found to be 96%.

On to `Cc1ccc(Oc2ccc(CN3C(=O)CCC3C)cc2)cc1` (single isomer, unassigned) [Example 2, 5-methyl-1-{[4-(4-methylphenoxy)pheny]methyl}pyrrolidin-2-one (optical isomer)], for which the “% inhibited(10 μM)” value (10 µM) is 98%.

On to `Cc1ccc(Oc2ccc(CN3C(=O)CCC3C)cc2)cc1` (single isomer, unassigned) [Example 3, 5-methyl-1-{[4-(4-methylphenoxy)phenyl]methyl}pyrrolidin-2-one (optical isomer)], for which the “% inhibited(10 μM)” value (10 µM) is listed as 99%.

For `Cc1ccc(Oc2ccc(CN3C(=O)C[C@@H](O)[C@@H]3C)cc2)cc1` [Example 10, (4R,5S)-4-hydroxy-5-methyl-1-{[4-(4-methylphenoxy)phenyl]methyl}pyrrolidin-2-one], the inhibition at 10 µM stood at 94%.

On to `Cc1ccc(Oc2ccc(CN3C(=O)CC[C@@H]3C)cn2)cc1` [Example 21, (5S)-5-methyl-1-{[6-(4-methylphenoxy)pyridin-3-yl]methyl}pyrrolidin-2-one], for which the inhibition at 10 µM was determined as 98%.

As for `C[C@H]1COC(=O)N1Cc1ccc(Oc2ccc(C(F)F)cc2F)nc1` [Example 50, (4S)-3-({6-[4-(difluoromethyl)-2-fluorophenoxy]pyridin-3-yl}methyl)-4-methyl-1,3-oxazolidin-2-one], the inhibition at 10 µM turned out to be 98%.

Turning to `Cc1ccc(Oc2ccc(CN3C(=O)OCC3CF)cn2)c(F)c1` (stereo not shown) [Example 39, 4-(fluoromethyl)-3-{[6-(2-fluoro-4-methylphenoxy)pyridin-3-yl]methyl}-1,3-oxazolidin-2-one], the inhibition at 10 µM is 92%.

On to `Cc1ccc(Oc2ccc(CN3C(=O)OC[C@@H]3C)cc2)cc1` [Example 18, (4S)-4-methy-3-{[4-(4-methylphenoxy)phenyl]methyl}1,3-oxazolidin-2-one], for which the inhibition at 10 µM worked out at 98%.

For the compound `Cc1ccc(Oc2ccc(CN3C(=O)CCC3C)cc2)cc1` (stereo not shown) [Example 1, 5-methyl-1-{[4-(4-methylphenoxy)phenyl]methyl}pyrrolidin-2-one], the inhibition at 10 µM stood at 99%.

On to `Cc1ccc(Oc2ccc(CN3C(=O)C[C@H](O)[C@@H]3C)cc2)cc1` [Example 6, (4S,5S)-4-hydroxy-5-methyl-1-{[4-(4-methylphenoxy)phenyl]methyl}pyrrolidin-2-one], for which the inhibition at 10 µM is 97%.

Consider `Cc1ccc(Oc2ccc(CN3C(=O)OCC3C(F)F)cn2)c(F)c1` (stereo not shown) [Example 40, 4-(difluoromethyl)-3-{[6-(2-fluoro-4-methylphenoxy)pyridin-3-yl]methyl}-1,3-oxazolidin-2-one], for which the inhibition at 10 µM is 95%.

For the compound `Cc1ccc(Oc2ccc(CN3C(=O)C[C@H](O)[C@@H]3C)cn2)cc1` [Example 13, (4S,5S)-4-hydroxy-5-methyl-1-{[6-(4-methylphenoxy)pyridin-3-yl]methyl}pyrrolidin-2-one], the inhibition at 10 µM is 97%.

Take `Cc1ccc(Oc2ccc(CN3C(=O)C[C@H](O)[C@@H]3C)nc2)cc1` [Example 16, (4S,5S)-4-hydroxy-5-methyl-1-{[5-(4-methylphenoxy)pyridin-2-yl]methyl}pyrrolidin-2-one]: the inhibition at 10 µM came to 95%.

For `Cc1ccc(Oc2cnc(CN3C(=O)CCC3C)cn2)cc1` (stereo not shown) [Example 4, 5-methyl-1-{[5-(4-methylphenoxy)pyrazin-2-yl]methyl}yrrolidin-2-one], the inhibition at 10 µM was determined as 93%.

For `C[C@H]1COC(=O)N1Cc1cnc(Oc2c(F)cc(F)cc2F)nc1` [Example 24, (4S)-4-methyl-3-{[2-(2,4,6-trifluorophenoxy)pyrimidin-5-yl]methyl}-1,3-oxazolidin-2-one], the inhibition at 10 µM worked out at 93%.

Regarding `C[C@H]1CCC(=O)N1Cc1ccc(Oc2ccc(F)cc2F)nc1` [Example 48, (5S)-1-{[6-(2,4-difluorophenoxy)pyridin-3-yl]methyl}-5-methylpyrrolidin-2-one], the inhibition at 10 µM stood at 98%.

As to `Cc1ccc(Oc2ccc(CN3C(=O)OC[C@@H]3C)cn2)cc1` [Example 20, (4S)-4-methyl-3-{[6-(4-methylphenoxy)pyridin-3-yl]methyl}-1,3-oxazolidin-2-one], the inhibition at 10 µM worked out at 97%.

With `Cc1ccc(Oc2ccc(CN3C(=O)OC[C@@H]3C)cn2)c(F)c1` [Example 25, (4S)-3-{[6-(2-fluoro-4-methylphenoxy)pyridin-3-y]methyl}-4-methyl-1,3-oxazolidin-2-one], the inhibition at 10 µM is 96%.

Turning to `C[C@H]1[C@@H](O)C(F)(F)C(=O)N1Cc1ccc(Oc2c(F)cc(F)cc2F)nc1` [Example 34, (4R,5S)-3,3-difluoro-4-hydroxy-5-methyl-1-{[6-(2,4,6-trifluorophenoxy)pyridin-3-yl]methyl}pyrrolidin-2-one], the inhibition at 10 µM is 97%.

With `C[C@H]1[C@@H](O)CC(=O)N1Cc1ccc(Oc2ccc(F)cc2F)nc1` [Example 37, (4S,5S)-1{[-6-(2,4-difluorophenoxy)pyridin-3-yl]methyl}-4-hydroxy-5-methylpyrrolidin-2-one], the inhibition at 10 µM was 97%.

With `Cc1ccc(Oc2ccc(CN3C(=O)C[C@H](O)[C@@H]3C)cn2)cc1.Cl` [Example 14, (4S,5S)-4-hydroxy-5-methyl-1-{[6-(4-methylphenoxy)pyridin-3-yl]methyl}pyrrolidin-2-one], the “% inhibited(10 μM)” value is 96%.

Regarding `Cc1ccc(Oc2ccc(CN3C(=O)C[C@H](O)[C@@H]3C)cn2)c(F)c1` [Example 26, (4S,5S)-1-{[6-(2-fluoro-4-methylphenoxy)pyridin-3-yl]methyl}-4-hydroxy-5-methylpyrrolidin-2-one], the inhibition at 10 µM was 97%.

With `C[C@H]1[C@@H](O)CC(=O)N1Cc1ccc(Oc2ccc(Cl)cc2F)nc1` [Example 43, (4S,5S)-1-{[6-(4-chloro-2-fluorophenoxy)pyridin-3-yl]methyl}4-hydroxy-5-methylpyrrolidin-2-one], the inhibition at 10 µM was determined as 98%.

Consider `Cc1ccc(Oc2ncc(CN3C(=O)C[C@H](O)[C@@H]3C)cn2)cc1` [Example 15, (4S,5S)-4-hydroxy-5-methyl-1-{[2-(4-methylphenoxy)pyrimidin-5-yl]methyl}pyrrolidin-2-one], for which the inhibition at 10 µM was determined as 90%.

`Cc1ccc(Oc2ncc(CN3C(=O)OC[C@@H]3C)cn2)cc1` [Example 30, (4S)-4-methyl-3-{[2-(4-methylphenoxy)pyrimidin-5-yl]methyl}-1,3-oxazolidin-2-one]: the inhibition at 10 µM is 90%.

Turning to `Cc1ccc(Oc2ncc(CN3C(=O)CCC3C)cn2)cc1` (stereo not shown) [Example 5, 5-methyl-1-{[2-(4-methylphenoxy)pyrimidin-5-yl]methyl}pyrrolidin-2-one], the inhibition at 10 µM came out at 91%.

Turning to `C[C@H]1CNC(=O)N1Cc1ccc(Oc2c(F)cc(F)cc2F)nc1` [Example 33, (5S)-5-methyl-1-{[6-(2,4,6-trifluorophenoxy)pyridin-3-yl]methyl}imidazolidin-2-one], the inhibition at 10 µM amounted to 97%.

As for `Cc1ccc(Oc2ccc(CN3C(=O)CCC3C(F)(F)F)cn2)cc1` (stereo not shown) [Example 29, 1-{[6-(4-methylphenoxy)pyridin-3-yl]methyl}-5-(trifluoromethyl)pyrrolidin-2-one], the inhibition at 10 µM came out at 93%.

With `Cc1ccc(Oc2ccc(CN3C(=O)C[C@H](O)[C@H]3C)cc2)cc1` [Example 11, (4S,5R)-4-hydroxy-5-methyl-1-{[4-(4-methylphenoxy)pheny]methyl}pyrrolidin-2-one], the inhibition at 10 µM was found to be 91%.

In the case of `C[C@H]1[C@@H](O)CC(=O)N1Cc1ccc(Oc2ccc(F)cc2)cc1` [Example 9, (4S,5S)-1-{[4-(4-fluorophenoxy)phenyl]methyl}-4-hydroxy-5-methylpyrrolidin-2-one], the inhibition at 10 µM is 96%.
